Results: patent publication US20250059205A1, “Heterocyclic Compounds and Methods of Use” (AMGEN INC., priority 2021, published 2025)

Experiments:
[1] = target: His-tagged KRAS G12D protein (Homo sapiens, UniProt P01116, G12D); experiment: KRAS G12D TR-FRET Assay; type: binding
[2] = test system: Phosphorylation of ERK1/2 in AsPC-1 cells; experiment: Phospho-ERK1/2 MSD Assay (AsPC-1 cells); type: cell-based; details: Homo sapiens, ASPC1, 2 h, 2 hours treatment, read-out: p-ERK (AsPC-1 cells) IC50
Outline: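 Read-out: MSD electrochemiluminescent detection of phosphorylated ERK1/2 in whole-cell lysates, fitted to a 4-parameter logistic curve for IC50. Prior to lysis, AsPC-1 cells (25,000 per well) received a 2 h compound dose-response at 37 °C.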

[3] = test system: Phosphorylation of ERK1/2 in A-427 cells; experiment: Phospho-ERK1/2 MSD Assay (A-427 cells); type: cell-based; details: Homo sapiens, A-427, 2 h, 2 h treatment, read-out: p-ERK (A427 cells) IC50
Outline: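 ERK1/2 phosphorylation measured by Meso Scale whole-cell lysate assay after A-427 cells were exposed to a titration of compound for 2 h at 37 °C.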

[4] = target: GDP-bound KRAS protein (aa 1-169), containing both G12D and C118A amino acid substitutions (Homo sapiens, UniProt P01116, C118A/G12D); experiment: KRAS G12D Coupled Nucleotide Exchange Assay; type: biochemical; details: 2 h compound pre-incubation
Protocol: Following compound pre-incubation, purified SOS protein (aa 564-1049) and GTP (Roche 10106399001) were added to the assay wells and incubated for an additional 30 min. […] The assay plates were then read on a PerkinElmer EnVision Multilabel Reader, using AlphaScreen® technology, and data were analyzed using a 4-parameter logistic model to calculate IC50 values.

Chain of His-tagged KRAS G12D protein (P01116 1-188 isoform P01116-2 G12D): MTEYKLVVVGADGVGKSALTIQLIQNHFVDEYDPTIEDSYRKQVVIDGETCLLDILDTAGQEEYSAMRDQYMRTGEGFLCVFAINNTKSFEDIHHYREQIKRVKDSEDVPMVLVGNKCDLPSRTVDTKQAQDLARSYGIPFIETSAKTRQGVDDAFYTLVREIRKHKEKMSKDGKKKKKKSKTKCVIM
Chain of GDP-bound KRAS protein (aa 1-169), containing both G12D and C118A amino acid substitutions (P01116 1-169 isoform P01116-2 G12D/C118A): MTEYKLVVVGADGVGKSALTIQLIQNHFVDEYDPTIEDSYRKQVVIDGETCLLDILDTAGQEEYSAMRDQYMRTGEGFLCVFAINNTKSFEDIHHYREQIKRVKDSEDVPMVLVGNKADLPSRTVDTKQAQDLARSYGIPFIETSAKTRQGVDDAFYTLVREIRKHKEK

Structure (SMILES) | IC50 [1] | IC50 [2] | IC50 [3] | Avg 2 h Coupled Exchange IC50 [4]
N#Cc1ccc2[nH]ncc2c1-c1ccc2c(N3C[C@H]4CC[C@@H](C3)N4)nc(OC[C@@]34CCCN3C[C@H](F)C4)nc2c1F [Example 197, 4-(4-((1R,5S)-3,8-Diazabicyclo[3.2.1]octan-3-yl)-8-fluoro-2-(((2R,7aS)-2-fluorotetrahydro-1H-pyrrolizin-7a(5H)-yl)methoxy)quinazolin-7-yl)-1H-indazole-5-carbonitrile] | 108 nM | > 10000 nM | 4030 nM | 54 nM
CN1C[C@H](F)C[C@H]1COc1nc(N2[C@@H]3CC[C@H]2CNC3)c2cc(F)c(-c3cc(O)cc4cccnc34)c(F)c2n1 [Example 30, 8-(4-((1R,5S)-3,8-diazabicyclo[3.2. 1]octan-8-yl)-6,8-difluoro-2-(((2S,4R)-4-fluoro-1-methylpyrrolidin-2-yl)methoxy)quinazolin-7-yl)quinolin-6-ol] | 559 nM | 21500 nM | 17700 nM | 158 nM
CCc1c(F)ccc2cc(O)cc(-c3c(F)cc4c(N5C[C@@H]6CC[C@H]5CN6)nc(OC[C@@H]5C[C@@H](F)CN5C)nc4c3F)c12 [Example 94, 4-(4-((1S,4S)-2,5-diazabicyclo[2.2. 2]octan-2-yl)-6,8-difluoro-2-(((2S,4R)-4-fluoro-1-methylpyrrolidin-2-yl)methoxy)quinazolin-7-yl)-5-ethyl-6-fluoronaphthalen-2-ol] | 5 nM | 152 nM | 110 nM | 4 nM
Cc1c(-c2cc(O)cc3ccccc23)ccc2c(N3[C@@H]4CC[C@H]3CNC4)nc(OC[C@@]34CCCN3C[C@H](F)C4)nc12 [Example 34, 4-(4-((1R,5S)-3,8-diazabicyclo[3.2. 1]octan-8-yl)-2-(((2R,7aS)-2-fluorotetrahydro-1H-pyrrolizin-7a(5H)-yl)methoxy)-8-methylquinazolin-7-yl)naphthalen-2-ol] | 47 nM | 2980 nM | 2570 nM | 22 nM
Oc1cc(-c2c(F)cc3c(N4C[C@@H]5C[C@H]4CN5)nc(OC[C@@]45CCCN4C[C@H](F)C5)nc3c2F)c2ccccc2c1 [Example 49, 4-(4-((1S,4S)-2,5-diazabicyclo[2.2. 1]heptan-2-yl)-6,8-difluoro-2-(((2R,7aS)-2-fluorotetrahydro-1H-pyrrolizin-7a(5H)-yl)methoxy)quinazolin-7-yl)naphthalen-2-ol] | 18 nM | 3600 nM | 652 nM | 9 nM
CCc1c(F)ccc2cc(O)cc(-c3ccc4c(N5C[C@H]6COC[C@@H](C5)N6)nc(OC[C@@]56CCCN5C[C@H](F)C6)nc4c3F)c12 [Example 138, 4-(4-((1R,5S)-3-oxa-7,9-diazabicyclo[3.3.1]nonan-7-yl)-8-fluoro-2-(((2R,7aS)-2-fluorotetrahydro-1H-pyrrolizin-7a(5H)-yl)methoxy)quinazolin-7-yl)-5-ethyl-6-fluoronaphthalen-2-ol] | 3 nM | 216 nM | 72 nM | 4 nM
Oc1cc(-c2ccc3c(N4C[C@H]5CC[C@@H](C4)N5)nc(OC[C@@]45CCCN4C[C@H](F)C5)nc3c2F)c2ccccc2c1 [Example 46, 4-(4-((1R,5S)-3,8-diazabicyclo[3.2. 1]octan-3-yl)-8-fluoro-2-(((2R,7aS)-2-fluorotetrahydro-1H-pyrrolizin-7a(5H)-yl)methoxy)quinazolin-7-yl)naphthalen-2-ol] | 2 nM | 39 nM | 6 nM | 2 nM
Oc1cc(-c2ccc3c(N4[C@@H]5CNC[C@H]4COC5)nc(OC[C@@]45CCCN4C[C@H](F)C5)nc3c2F)c2ccccc2c1 [Example 2, 4-(4-((1R,5S)-3-oxa-7,9-diazabicyclo[3.3. 1]nonan-9-yl)-8-fluoro-2-(((2R,7aS)-2-fluorotetrahydro-1H-pyrrolizin-7a(5H)-yl)methoxy)quinazolin-7-yl)naphthalen-2-ol] | 7 nM | 721 nM | 222 nM | 4 nM
CCc1c(F)ccc2cc(O)cc(-c3c(Cl)cc4c(N5C[C@@H]6CC[C@H]5CN6)nc(OC[C@@]56CCCN5C[C@H](F)C6)nc4c3F)c12 [Example 129, 4-(4-((1S,4S)-2,5-diazabicyclo[2.2.2]octan-2-yl)-6-chloro-8-fluoro-2-(((2R,7aS)-2-fluorotetrahydro-1H-pyrrolizin-7a(5H)-yl)methoxy)quinazolin-7-yl)-5-ethyl-6-fluoronaphthalen-2-ol] | 4 nM | 83 nM | 29 nM | 5 nM
CCc1c(F)ccc2cccc(-c3ccc4c(N5C[C@H]6CC[C@@H](C5)N6)nc(OC[C@@]56CCCN5C[C@H](F)C6)nc4c3C)c12 [Example 58, 4-((1R,5S)-3,8-diazabicyclo[3.2. 1]octan-3-yl)-7-(8-ethyl-7-fluoronaphthalen-1-yl)-2-(((2R,7aS)-2-fluorotetrahydro-1H-pyrrolizin-7a(5H)-yl)methoxy)-8-methylquinazolin] | 6 nM | 2460 nM | 4190 nM | 5 nM
CCc1c(F)ccc2cc(O)cc(-c3ccc4c(N5C[C@@H]6CC[C@H]5CN6)nc(OC[C@@]56CCCN5C[C@H](F)C6)nc4c3F)c12 [Example 139, 4-(4-((1S,4S)-2,5-diazabicyclo[2.2.2]octan-2-yl)-8-fluoro-2-(((2R,7aS)-2-fluorotetrahydro-1H-pyrrolizin-7a(5H)-yl)methoxy)quinazolin-7-yl)-5-ethyl-6-fluoronaphthalen-2-ol] | 5 nM | 44 nM | 8 nM | 4 nM
Cc1cc2[nH]ncc2c(-c2ccc3c(N4[C@@H]5CC[C@H]4CNC5)nc(OC[C@@]45CCCN4C[C@H](F)C5)nc3c2)c1Cl [Example 37, 4-((1R,5S)-3,8-diazabicyclo[3.2. 1]octan-8-yl)-7-(5-chloro-6-methyl-1H-indazol-4-yl)-2-(((2R,7aS)-2-fluorotetrahydro-1H-pyrrolizin-7a(5H)-yl)methoxy) quinazoline] | 193 nM | 6700 nM | > 10000 nM | 73 nM
CCc1c(F)ccc2cc(O)cc(-c3c(F)cc4c(N5[C@@H]6CC[C@H]5CNC6)nc(OC[C@@]56CCCN5C[C@H](F)C6)nc4c3F)c12 [Example 150, 4-(4-((1R,5S)-3,8-diazabicyclo[3.2.1]octan-8-yl)-6,8-difluoro-2-(((2R,7aS)-2-fluorotetrahydro-1H-pyrrolizin-7a(5H)-yl)methoxy)quinazolin-7-yl)-5-ethyl-6-fluoronaphthalen-2-ol] | 3 nM | 94 nM | 30 nM | 3 nM
Oc1cc(-c2ccc3c(N4C[C@H]5CC[C@@H](C4)N5)nc(OC[C@@]45CCCN4C[C@H](F)C5)nc3c2)c2ccccc2c1 [Example 41, 4-(4-((1R,5S)-3,8-diazabicyclo[3.2. 1]octan-3-yl)-2-(((2R,7aS)-2-fluorotetrahydro-1H-pyrrolizin-7a(5H)-yl)methoxy)quinazolin-7-yl)naphthalen-2-ol] | 2 nM | 182 nM | 74 nM | 2 nM
